Measured values reported in ChEMBL document CHEMBL1777794, “Optimization of the physicochemical and pharmacokinetic attributes in a 6-azauracil series of P2X7 receptor antagonists leading to the discovery of the clinical candidate CE-224,535” (Bioorg Med Chem Lett, 2011).
Activity calls are given as the source filed them. The calls are words filed in the database; no cut-off is given here.

How the values were obtained:
P2X purinoceptor 7 [1] = target: T1, P2X purinoceptor 7 (Homo sapiens, UniProt Q99572); assay: Antagonist activity at P2X7 receptor in human LPS-stimulated monocytes assessed as inhibition of ATP-induced IL1-beta release by ELISA; format: functional, cell-based
T1 sequence (Q99572 whole entry): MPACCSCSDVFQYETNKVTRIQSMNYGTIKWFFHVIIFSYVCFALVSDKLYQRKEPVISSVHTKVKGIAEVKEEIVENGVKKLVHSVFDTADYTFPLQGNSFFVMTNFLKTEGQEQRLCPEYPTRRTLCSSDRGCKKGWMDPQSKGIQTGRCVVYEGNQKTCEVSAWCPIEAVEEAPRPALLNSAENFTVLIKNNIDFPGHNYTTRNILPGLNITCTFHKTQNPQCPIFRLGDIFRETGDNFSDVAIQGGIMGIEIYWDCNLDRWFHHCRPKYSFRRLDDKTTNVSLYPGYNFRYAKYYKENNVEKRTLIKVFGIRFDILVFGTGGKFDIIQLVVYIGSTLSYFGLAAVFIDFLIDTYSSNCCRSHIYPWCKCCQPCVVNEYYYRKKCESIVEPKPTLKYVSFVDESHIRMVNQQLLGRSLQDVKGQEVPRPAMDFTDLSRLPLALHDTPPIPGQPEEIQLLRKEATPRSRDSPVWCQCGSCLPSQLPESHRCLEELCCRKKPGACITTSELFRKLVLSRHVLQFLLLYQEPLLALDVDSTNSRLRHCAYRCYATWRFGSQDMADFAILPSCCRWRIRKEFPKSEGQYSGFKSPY

[2] = target: T2, P2X purinoceptor 7 (Homo sapiens) (UniProt Q99572); assay: Antagonist activity at P2X7 receptor in human LPS-stimulated monocytes assessed as inhibition of ATP-induced IL1-beta release at 5 uM by ELISA; format: functional, cell-based
T2 sequence (whole entry): T1 sequence (Q99572 whole entry)

P2X purinoceptor 7 [3] = target: T1, P2X purinoceptor 7; assay: Antagonist activity at P2X7 receptor expressed in HEK293 cells assessed as inhibition of ATP-induced YOPRO-1 uptake; format: functional, cell-based
[4] = target: T2, P2X purinoceptor 7 (Homo sapiens); assay: (§1) Antagonist activity at P2X7 receptor in human LPS-stimulated monocytes assessed as inhibition of ATP-induced IL1-beta release by ELISA in presence of human blood; format: functional, cell-based
P2X purinoceptor 7 [5] = target: T1, P2X purinoceptor 7; assay: as §1; format: functional, cell-based
[6] = Fraction unbound in human plasma; format: ADME, cell-free
[7] = Volume of distribution at steady state in rat; format: ADME, organism-based; conditions: in vivo, read-out: Vdss
[8] = Half life in rat; format: ADME, organism-based; conditions: in vivo
[9] = Cmax in rat at 5 mg/kg, po; format: ADME, organism-based; parameters: dose 5 mg/kg, route oral; conditions: in vivo
[10] = Oral bioavailability in rat at 5 mg/kg; format: ADME, organism-based; conditions: in vivo
[11] = Volume of distribution at steady state in dog; format: ADME, organism-based, Canis lupus familiaris; conditions: in vivo, read-out: Vdss
[12] = Half life in dog; format: ADME, organism-based, Canis lupus familiaris; conditions: in vivo
[13] = Cmax in dog; format: ADME, organism-based, Canis lupus familiaris; conditions: in vivo
[14] = Oral bioavailability in dog; format: ADME, organism-based, Canis lupus familiaris; conditions: in vivo
[15] = Plasma clearance in monkey; conditions: rhesus monkey
[16] = Volume of distribution at steady state in monkey; format: ADME, organism-based, Macaca mulatta; conditions: rhesus monkey, in vivo; read-out: Vdss
[17] = Half life in monkey; format: ADME, organism-based, Macaca mulatta; conditions: rhesus monkey, in vivo
[18] = Cmax in monkey; format: ADME, organism-based, Macaca mulatta; conditions: rhesus monkey, in vivo
[19] = Oral bioavailability in monkey; format: ADME, organism-based, Macaca mulatta; conditions: rhesus monkey, in vivo
in vivo [20] = conditions: rat, plasma
in vivo [21] = conditions: dog, plasma
Cytochrome P450 1A2 = target: T3, Cytochrome P450 1A2 (Homo sapiens, UniProt P05177); assay: Inhibition of human CYP1A2; format: ADME
T3 sequence (P05177 whole entry): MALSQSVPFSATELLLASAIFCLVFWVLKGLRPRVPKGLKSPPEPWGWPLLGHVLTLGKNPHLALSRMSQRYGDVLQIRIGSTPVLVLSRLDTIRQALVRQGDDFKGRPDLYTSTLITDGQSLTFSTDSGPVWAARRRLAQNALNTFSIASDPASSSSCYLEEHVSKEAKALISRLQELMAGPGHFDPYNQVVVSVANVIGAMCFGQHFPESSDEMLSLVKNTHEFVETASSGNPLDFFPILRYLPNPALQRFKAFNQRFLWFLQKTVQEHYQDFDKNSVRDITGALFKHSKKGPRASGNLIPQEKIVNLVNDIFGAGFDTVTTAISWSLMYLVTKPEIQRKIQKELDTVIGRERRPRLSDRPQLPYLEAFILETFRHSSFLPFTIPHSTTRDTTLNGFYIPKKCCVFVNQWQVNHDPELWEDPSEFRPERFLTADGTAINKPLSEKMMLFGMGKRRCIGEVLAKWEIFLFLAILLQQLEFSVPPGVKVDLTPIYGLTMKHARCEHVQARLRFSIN

Cytochrome P450 2C19 = Cytochrome P450 2C19 (Homo sapiens, UniProt P33261); assay: Inhibition of human CYP2C19; format: ADME
Cytochrome P450 2C9 = Cytochrome P450 2C9 (Homo sapiens, UniProt P11712); assay: Inhibition of human CYP2C9; format: ADME
Cytochrome P450 2D6 = Cytochrome P450 2D6 (Homo sapiens, UniProt P10635); assay: Inhibition of human CYP2D6; format: ADME
Cytochrome P450 3A4 = Cytochrome P450 3A4 (Homo sapiens, UniProt P08684); assay: Inhibition of human CYP3A4; format: ADME
Salmonella typhimurium = assay: Mutagenic activity in Salmonella Typhimurium by Ames assay; format: toxicity, organism-based; conditions: salmonella enterica subsp. enterica serovar typhimurium
[22] = target: Voltage-gated inwardly rectifying potassium channel KCNH2 (Homo sapiens, UniProt Q12809); assay: Inhibition of human ERG at 1 uM
Rattus norvegicus = assay: Toxicity in rat at 500 mg/kg, po qd for 4 days; format: organism-based; parameters: dose 500 mg/kg, route oral; conditions: in vivo, 96 h
[23] = target: T4, P2X purinoceptor 7 (Mus musculus) (UniProt Q9Z1M0); assay: Antagonist activity at P2X7 receptor in mouse LPS-stimulated peritoneal macrophages assessed as inhibition of ATP-induced IL1-beta release at 10 uM by ELISA; format: functional
T4 sequence (whole entry): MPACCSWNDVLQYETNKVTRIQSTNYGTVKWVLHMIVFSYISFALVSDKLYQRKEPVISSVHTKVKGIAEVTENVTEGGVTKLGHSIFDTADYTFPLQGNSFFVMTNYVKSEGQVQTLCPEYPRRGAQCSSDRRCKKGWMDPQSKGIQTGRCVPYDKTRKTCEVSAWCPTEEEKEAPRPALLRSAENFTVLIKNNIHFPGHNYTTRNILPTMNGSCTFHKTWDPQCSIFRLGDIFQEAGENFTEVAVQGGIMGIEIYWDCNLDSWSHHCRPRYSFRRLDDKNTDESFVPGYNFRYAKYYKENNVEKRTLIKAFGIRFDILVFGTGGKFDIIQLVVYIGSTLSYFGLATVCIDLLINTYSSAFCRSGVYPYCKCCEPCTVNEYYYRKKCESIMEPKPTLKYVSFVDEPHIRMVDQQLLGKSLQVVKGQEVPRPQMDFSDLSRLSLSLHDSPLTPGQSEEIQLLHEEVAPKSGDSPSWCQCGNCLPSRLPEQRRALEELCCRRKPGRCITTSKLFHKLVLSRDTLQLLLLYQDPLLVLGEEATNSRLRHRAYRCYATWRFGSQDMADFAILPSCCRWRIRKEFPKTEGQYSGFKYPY

[24] = Trough plasma concentration in rheumatoid arthritis patient at 500 mg BID for 12 weeks; format: ADME; conditions: human, read-out: Cmin

Voltage-gated inwardly rectifying potassium channel KCNH2, sequence (Q12809 whole entry): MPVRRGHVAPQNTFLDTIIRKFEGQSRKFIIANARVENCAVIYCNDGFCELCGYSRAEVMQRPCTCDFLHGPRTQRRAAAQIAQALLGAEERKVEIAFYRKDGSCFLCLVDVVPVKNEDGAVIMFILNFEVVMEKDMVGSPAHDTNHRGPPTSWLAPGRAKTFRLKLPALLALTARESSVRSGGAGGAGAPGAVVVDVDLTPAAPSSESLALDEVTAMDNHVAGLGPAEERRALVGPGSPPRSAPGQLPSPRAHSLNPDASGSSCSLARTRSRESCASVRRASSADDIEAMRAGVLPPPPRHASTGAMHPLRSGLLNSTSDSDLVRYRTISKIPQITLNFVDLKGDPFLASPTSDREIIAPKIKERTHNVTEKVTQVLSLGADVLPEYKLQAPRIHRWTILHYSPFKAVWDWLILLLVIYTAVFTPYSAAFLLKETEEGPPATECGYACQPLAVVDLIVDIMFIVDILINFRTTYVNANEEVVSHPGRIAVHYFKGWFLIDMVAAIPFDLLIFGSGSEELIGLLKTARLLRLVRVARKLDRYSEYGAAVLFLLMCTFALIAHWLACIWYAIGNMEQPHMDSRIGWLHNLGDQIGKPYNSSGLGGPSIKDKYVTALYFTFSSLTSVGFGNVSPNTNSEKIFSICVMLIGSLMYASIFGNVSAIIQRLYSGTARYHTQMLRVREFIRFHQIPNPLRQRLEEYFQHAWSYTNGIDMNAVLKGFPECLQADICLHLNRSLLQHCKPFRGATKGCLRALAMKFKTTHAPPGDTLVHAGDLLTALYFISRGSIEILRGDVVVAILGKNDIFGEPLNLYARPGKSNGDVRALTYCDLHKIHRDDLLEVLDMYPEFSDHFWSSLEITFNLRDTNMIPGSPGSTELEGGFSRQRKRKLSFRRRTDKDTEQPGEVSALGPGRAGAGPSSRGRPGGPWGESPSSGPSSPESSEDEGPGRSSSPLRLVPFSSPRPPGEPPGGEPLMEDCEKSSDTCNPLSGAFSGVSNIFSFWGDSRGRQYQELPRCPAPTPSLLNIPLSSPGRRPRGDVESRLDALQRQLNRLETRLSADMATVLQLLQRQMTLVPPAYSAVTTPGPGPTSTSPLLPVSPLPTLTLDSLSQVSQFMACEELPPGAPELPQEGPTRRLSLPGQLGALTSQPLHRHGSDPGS
Cytochrome P450 2D6, sequence (P10635 whole entry): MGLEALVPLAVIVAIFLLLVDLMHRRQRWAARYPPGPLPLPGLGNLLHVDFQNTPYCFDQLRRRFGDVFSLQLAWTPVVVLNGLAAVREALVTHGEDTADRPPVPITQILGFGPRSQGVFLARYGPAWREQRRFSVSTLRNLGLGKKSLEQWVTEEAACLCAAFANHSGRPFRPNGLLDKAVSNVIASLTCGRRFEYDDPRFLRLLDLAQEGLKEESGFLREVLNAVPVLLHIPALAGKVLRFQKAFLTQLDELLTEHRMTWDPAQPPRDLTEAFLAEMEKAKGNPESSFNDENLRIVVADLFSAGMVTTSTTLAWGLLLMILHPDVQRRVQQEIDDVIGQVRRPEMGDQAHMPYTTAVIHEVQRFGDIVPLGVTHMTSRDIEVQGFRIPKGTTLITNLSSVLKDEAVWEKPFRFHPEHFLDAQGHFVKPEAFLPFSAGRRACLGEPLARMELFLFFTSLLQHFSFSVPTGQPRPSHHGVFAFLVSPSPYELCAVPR
Cytochrome P450 2C9, sequence (P11712 whole entry): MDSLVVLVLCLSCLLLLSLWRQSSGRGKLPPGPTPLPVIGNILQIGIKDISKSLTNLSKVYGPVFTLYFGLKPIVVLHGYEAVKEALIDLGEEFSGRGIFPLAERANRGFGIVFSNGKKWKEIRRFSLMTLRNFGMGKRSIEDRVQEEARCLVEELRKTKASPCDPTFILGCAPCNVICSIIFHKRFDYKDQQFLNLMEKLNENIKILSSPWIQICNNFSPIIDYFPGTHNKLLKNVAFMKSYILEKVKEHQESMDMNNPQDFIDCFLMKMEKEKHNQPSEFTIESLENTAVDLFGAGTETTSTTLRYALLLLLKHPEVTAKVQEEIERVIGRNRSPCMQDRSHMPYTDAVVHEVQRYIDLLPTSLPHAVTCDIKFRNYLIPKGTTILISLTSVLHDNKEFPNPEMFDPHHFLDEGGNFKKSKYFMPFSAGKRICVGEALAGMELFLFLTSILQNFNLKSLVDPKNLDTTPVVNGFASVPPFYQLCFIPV
Cytochrome P450 3A4, sequence (P08684 whole entry): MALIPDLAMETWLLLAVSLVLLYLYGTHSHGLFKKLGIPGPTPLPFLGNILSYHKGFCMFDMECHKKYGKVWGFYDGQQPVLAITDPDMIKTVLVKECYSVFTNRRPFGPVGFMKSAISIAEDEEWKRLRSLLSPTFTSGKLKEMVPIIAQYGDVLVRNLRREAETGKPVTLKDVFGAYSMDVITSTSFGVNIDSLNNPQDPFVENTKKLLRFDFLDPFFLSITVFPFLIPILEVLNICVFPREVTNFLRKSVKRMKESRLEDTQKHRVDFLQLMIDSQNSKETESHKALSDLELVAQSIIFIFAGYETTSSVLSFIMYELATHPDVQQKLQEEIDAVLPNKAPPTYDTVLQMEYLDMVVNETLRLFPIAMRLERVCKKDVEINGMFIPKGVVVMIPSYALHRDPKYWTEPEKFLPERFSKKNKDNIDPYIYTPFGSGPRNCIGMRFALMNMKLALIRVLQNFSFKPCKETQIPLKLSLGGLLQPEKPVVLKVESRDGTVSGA
Cytochrome P450 2C19, sequence (P33261 whole entry): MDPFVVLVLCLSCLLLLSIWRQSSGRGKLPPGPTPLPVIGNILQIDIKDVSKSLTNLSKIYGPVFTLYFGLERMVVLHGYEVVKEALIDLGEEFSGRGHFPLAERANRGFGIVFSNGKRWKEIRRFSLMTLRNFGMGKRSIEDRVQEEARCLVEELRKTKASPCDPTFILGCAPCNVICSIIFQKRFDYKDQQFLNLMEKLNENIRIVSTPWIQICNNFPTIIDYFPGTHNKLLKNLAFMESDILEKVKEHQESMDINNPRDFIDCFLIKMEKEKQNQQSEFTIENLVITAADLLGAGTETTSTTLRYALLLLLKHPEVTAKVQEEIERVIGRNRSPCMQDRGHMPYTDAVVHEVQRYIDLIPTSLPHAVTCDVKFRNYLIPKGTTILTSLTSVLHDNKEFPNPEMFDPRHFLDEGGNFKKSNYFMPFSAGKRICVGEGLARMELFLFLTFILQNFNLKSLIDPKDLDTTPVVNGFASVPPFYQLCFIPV

Compound: O=C(NCCc1ccccc1)c1cc(-n2ncc(=O)[nH]c2=O)ccc1Cl
- IC50 (P2X purinoceptor 7 [1]): 940 nM

Compound: O=C(NCCc1ccncc1)c1cc(-n2ncc(=O)[nH]c2=O)ccc1Cl
- inhibition [2]: 22%

Compound: O=C(NCC1(O)CCCCCC1)c1cc(-n2ncc(=O)[nH]c2=O)ccc1Cl
- IC50 (P2X purinoceptor 7 [3]): 15 nM
- IC50 (P2X purinoceptor 7 [1]): 83 nM
- IC90 [4]: 1000 nM
- IC50 (P2X purinoceptor 7 [5]): 447 nM
- fraction unbound [6]: 0.18
- Vd [7]: 8.5 L/kg
- half-life [8]: 192 min
- Cmax [9]: 1300 ng/mL
- bioavailability [10]: 75%
- Vd [11]: 0.6 L/kg
- half-life [12]: 228 min
- Cmax [13]: 7400 ng/mL
- bioavailability [14]: 84%
- clearance [15]: 21 mL/min/kg
- Vd [16]: 1.5 L/kg
- half-life [17]: 204 min
- Cmax [18]: 600 ng/mL
- bioavailability [19]: 72%
- clearance (in vivo [20]): 20 mL/min/kg
- clearance (in vivo [21]): 3.8 mL/min/kg

Compound: O=C(NCC1CCOCC1)c1cc(-n2ncc(=O)[nH]c2=O)ccc1Cl
- IC50 (P2X purinoceptor 7 [1]): > 5000 nM

Compound: CCCCC(CC)CNC(=O)c1cc(-n2ncc(=O)[nH]c2=O)ccc1Cl (stereo unspecified)
- IC50 (P2X purinoceptor 7 [3]): 1100 nM

Compound: O=C(NCC1CCCCC1)c1cc(-n2ncc(=O)[nH]c2=O)ccc1Cl
- IC50 (P2X purinoceptor 7 [1]): 1300 nM

Compound: CCCCCNC(=O)c1cc(-n2ncc(=O)[nH]c2=O)ccc1Cl
- IC50 (P2X purinoceptor 7 [1]): 2800 nM

Compound: O=C(NCCc1cccnc1)c1cc(-n2ncc(=O)[nH]c2=O)ccc1Cl
- inhibition [2]: 22%

Compound: CCCCC(CC)COC(=O)c1cc(-n2ncc(=O)[nH]c2=O)ccc1Cl (stereo unspecified)
- inhibition [2]: 19%

Compound: Cn1c(=O)cnn(-c2ccc(Cl)c(C(=O)NCC3(O)CCCCCC3)c2)c1=O
- IC50 (P2X purinoceptor 7 [1]): 42 nM

Compound: CCC(CC)CNC(=O)c1cc(-n2ncc(=O)[nH]c2=O)ccc1Cl
- IC50 (P2X purinoceptor 7 [1]): 1100 nM

Compound: CCCOCCNC(=O)c1cc(-n2ncc(=O)[nH]c2=O)ccc1Cl
- IC50 (P2X purinoceptor 7 [1]): > 5000 nM

Compound: COC[C@H](O)Cn1c(=O)cnn(-c2ccc(Cl)c(C(=O)NCC3(O)CCCCCC3)c2)c1=O [CE-224535]
- IC50 (P2X purinoceptor 7 [3]): 4 nM
- IC50 (P2X purinoceptor 7 [1]): 1.4 nM
- IC90 [4]: 4.7 nM
- IC50 (P2X purinoceptor 7 [5]): 0.8 nM
- fraction unbound [6]: 0.27
- Vd [7]: 7.6 L/kg
- half-life [8]: 144 min
- Cmax [9]: 210 ng/mL
- bioavailability [10]: 2.6%
- Vd [11]: 0.61 L/kg
- half-life [12]: 27.6 min
- Cmax [13]: 3500 ng/mL
- bioavailability [14]: 59%
- Vd [16]: 0.68 L/kg
- half-life [17]: 46.2 min
- Cmax [18]: 550 ng/mL
- bioavailability [19]: 22%
- IC50 (Cytochrome P450 1A2): > 30 µM
- IC50 (Cytochrome P450 2C19): > 30 µM
- IC50 (Cytochrome P450 2C9): > 30 µM
- IC50 (Cytochrome P450 2D6): > 30 µM
- IC50 (Cytochrome P450 3A4): > 30 µM
- Activity (Salmonella typhimurium): Non-toxic
- inhibition (INH) [22]: Not Active
- Activity (Rattus norvegicus): Non-toxic
- inhibition [23]: Active
- concentration at 2016 h [24]: 519 nM

Compound: CCn1c(=O)cnn(-c2ccc(Cl)c(C(=O)NCC3(O)CCCCCC3)c2)c1=O
- IC50 (P2X purinoceptor 7 [1]): 86 nM
- IC50 (P2X purinoceptor 7 [5]): 185 nM

Compound: CCCCCCNC(=O)c1cc(-n2ncc(=O)[nH]c2=O)ccc1Cl
- IC50 (P2X purinoceptor 7 [1]): 3600 nM
